Experimental data taken from BindingDB's records for doi:10.1021/jm200691d (University of Bologna, 2011).

What was measured:
[1] = molecular target: T1, Acetylcholinesterase (Homo sapiens, UniProt P22303); experiment: Inhibition of human recombinant AChE-induced amyloid beta (1-40) aggregation assessed as fibril formation after 24 hrs by thioflavin T-based fluorometric assay
[2] = molecular target: T1, Acetylcholinesterase; experiment: Inhibition of human recombinant AChE using acetylthiocholine iodide as substrate after 20 mins preincubation by Ellman method

T1 sequence (P22303 whole entry): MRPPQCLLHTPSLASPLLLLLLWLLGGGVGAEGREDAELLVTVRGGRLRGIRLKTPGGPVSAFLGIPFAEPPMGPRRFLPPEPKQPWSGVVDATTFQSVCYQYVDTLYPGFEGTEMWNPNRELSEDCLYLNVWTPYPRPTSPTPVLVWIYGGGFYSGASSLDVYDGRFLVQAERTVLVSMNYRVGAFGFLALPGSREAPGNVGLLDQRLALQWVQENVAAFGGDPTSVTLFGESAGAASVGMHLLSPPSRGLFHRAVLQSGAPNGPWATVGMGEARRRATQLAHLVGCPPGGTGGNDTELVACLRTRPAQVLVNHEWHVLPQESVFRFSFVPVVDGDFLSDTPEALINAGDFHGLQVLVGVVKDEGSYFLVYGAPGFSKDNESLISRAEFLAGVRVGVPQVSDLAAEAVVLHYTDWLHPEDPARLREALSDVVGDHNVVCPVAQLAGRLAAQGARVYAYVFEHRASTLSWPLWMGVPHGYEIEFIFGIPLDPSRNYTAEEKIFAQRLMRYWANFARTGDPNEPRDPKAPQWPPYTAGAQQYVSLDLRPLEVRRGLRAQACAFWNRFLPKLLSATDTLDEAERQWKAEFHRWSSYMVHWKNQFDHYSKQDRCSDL

Compound: CCN(CCCCCC=Nc1cc(O)c2ccccc2c1O)Cc1ccccc1OC
- IC50 [1]: 45 µM
- IC50 [2]: 45 µM
